This is an account of results in US5594009A, “Fused pyrrolocarbazoles” (priority 1995, dated 1997).

Each structure is given as a SMILES string. Read-outs that look alike come from different tables or passages of the source.

Assay [1] relates to choline acetyltransferase (ChAT) activity in dissociated rat embryonic spinal cord culture. Kind of assay: Spinal Cord ChAT Activity Assay. The assay is classed as cell-based. Conditions: ChAT measured after 48 hours.
Description: In these assays, a fused pyrrolocarbazole was directly added to a dissociated spinal cord culture. […] The fused pyrrolocarbazole was added on the same day the dissociated spinal cord cell culture was initiated.
Methods: Fetal rat spinal cord cells were dissociated, and experiments were performed as described (Smith et al., J. Cell Biology., 101:1608-1621 (1985); Glicksman et al., J. Neurochem. 61:210-221 (1993)). Dissociated cells were prepared from spinal cords dissected from rats (embryonic day 14-15) by standard trypsin dissociation techniques (Smith et al., J. Cell Biology 10:1608-1621 (1985)). Cells were plated at 6×10^5 cells/cm^2 on poly-1-ornithine coated plastic tissue culture wells in serum-free N2 medium supplemented with 0.05% bovine serum albumin (BSA) (Bottenstein et al., PNAS USA 514-517 (1979)). Cultures were incubated at 37° C. in a humidified atmosphere of 5% CO2 /95% air for 48 hours. ChAT activity was measured after 2 days it vitro using a modification of the Fonnum procedure (Fonnum, J. Neurochem. 24:407-409 (1975)) according to McManaman et al. and Glicksman et al. (McManaman et al., Developmental Biology 125:311-320 (1988); Glicksman et al., J. Neurochem. 61:210-221 (1993)).
The next assay addresses protein kinase C. Kind of assay: PKC Activity Inhibition Assay. The class given is biochemical. As to the method: Fused pyrrolocarbazoles inhibited the activity of protein kinase C (Table VI). The protein kinase C assay has been disclosed (Murakata et al., U.S. Pat. No. 4,923,986; Kikkawa et al., J. Biol. Chem. 257:13341-13348 (1982)). The assay was performed with several concentrations of fused pyrrolocarbazoles. The concentration at which protein kinase C was 50% inhibited (IC50) was determined.

In a further assay the test system is AT-2 cells. Kind of assay: Inhibition of Growth of Prostate Cancer Cell Line (MTS assay). Conditions: 72 h, read-out: AT-2 cell growth IC50. The class given is cell-based. On the procedure: AT-2 cells are a prostate cancer cell sub-line derived from the Dunning H tumor, graciously provided to us by Dr. John Isaacs (John Hopkins, M. D.). Unlike the Dunning H tumor cells, AT-2 cells can be grown in vitro.
Methods: At-2 cells ([…]) were plated on tissue culture plastic in 96-well plates in the presence of RPMI-1640 medium containing 10% fetal calf serum, 250 nM dexamethasone, 2 mM glutamine, 1 mM sodium pyruvate, and penicillin/streptomycin antibiotics. The next day, compounds were added at 4 concentrations (10, 1, 0.1, 0.01 μM) to determine the approximate IC50 range. Cultures were assayed 3 days later for cell number using the MTS [(3-(4,5-dimethylthiazol-2-yl)-5-(3-carboxymethoxyphenyl)-2-(4-sulfophenyl)-2H-tetrazolium, inner salt)] assay. The MTS assay (purchased as a kit from Promega) measures the formation of an aqueous soluble formazan (detected by a plate reader at 490nm) produced by the bioreduction of a tetrazolium compound (MTS) in metabolically active cells via mitochondrial succinate dehydrogenase. After determining linearity of the substrate incubation time over a range of cell plating densities, the amount of product measured is directly proportional to cell number. MTS (333 ug/ml) and 25 μM phenazine methosulfate are mixed and added directly to the culture medium, and incubated at 37° C. in the 5% CO2 /95% air incubator for 0.5-4 h. Absorbance of the product at 490 nm is read on the BIO-TEK plate reader. Background values were obtained from wells containing culture medium with substrate solution, but no cells. In addition, values were also obtained from wells containing cells plated at day 0 and assayed on the day compound was added (day 1) in order to determine the number of cells at the time compound was added. After the initial dose-finding experiment was completed, subsequent experiments were set up so that there were 3 or more concentrations near the predicted IC50.

Assay [2] concerns ChAT activity of basal forebrain cultures. Kind of assay: Basal Forebrain ChAT Activity Assay. The assay is classed as cell-based, rat. As to the method: Fused pyrrolocarbazoles were tested for the ability to increase ChAT activity of basal forebrain cultures.
Methods: The basal forebrain was dissected from rat embryos (day 17 or 18 embryos) and the cells were dissociated with a neutral protease (Dispase™, Collaborative Research). Neurons were plated at a density of 5×10^4 cells/well (1.5×10^5 cells/cm^2) in poly-1-ornithine and laminin coated plates. Cells were cultured in serum-free N2 medium containing 0.05% BSA at 37° C. in a humidified atmosphere, 5% CO2 /95% air. ChAT activity was assessed 5 days after plating by using the ChAT assay as described in Example III(A)(1).

Another assay concerns the target trkA tyrosine kinase (Homo sapiens, UniProt P04629). Kind of assay: trkA Tyrosine Kinase Activity Inhibition Assay (ELISA). The class given is biochemical.
A further assay relates to chick DRG neurons. Kind of assay: DRG Neuron Survival Assay (calcein AM). The class given is cell-based. Conditions: 48 hours; for viability at 0.25 µM: 250 nM. On the procedure:
Fused pyrrolocarbazoles promoted dorsal root ganglion (DRG) neuronal survival in cultures of chick DRG neurons. Cell survival was measured by uptake of calcein AM, an analog of the viable dye, fluorescein diacetate. Calcein is taken up by viable cells and cleaved intracellularly to fluorescent salts which are retained by intact membranes of viable cells. Microscopic counts of viable neurons correlate directly with relative fluorescence values obtained with the fluorimetric viability assay. This method thus provides a reliable and quantitive measurement of cell survival in the total cell population of a given culture (Bozyczko-Coyne et al., J. Neur. Meth. 50:205-216, 1993).
Methods: Dorsal root ganglia were dissected from embryonic age day 9 chick embryos and dissociated cells prepared by subsequent Dispase (neutral protease, Collaborative Research) dissociation. Neurons were seeded at low density (3×10^4 cells/cm^2) into 96 well poly-L-ornithine and laminin coated plates. Cells were cultured for 48 hours in serum-free N2 medium (Bottenstein and Sato, 1979) at 37° C. in a humidified atmosphere, 5% CO2 /95% air. Cell survival was assessed at 48 hours using the viable fluorimetric assay described above.

The test system of assay [3] is NT-3 induced ChAT activity of rat basal forebrain cultures. Kind of assay: Enhancement of Neurotrophin (NT-3) Activity Assay, ChAT activity in basal forebrain cultures. The class given is cell-based. On the procedure: Fused pyrrolocarbazoles were tested for the ability to enhance the activity of the neurotrophin NT-3 in basal forebrain cultures. ChAT activity was assayed as a measure of cholinergic neuron function and survival. The concentration of NT-3 (100 ng/ml) used in these experiments increased ChAT activity over control cultures (untreated with NT-3 or a fused pyrrolocarbazole) by 140%.
Methods. Basal forebrain cultures were prepared from embryonic rats (embryonic day 17) and dissociated with the neutral protease Dispase™. Cells were plated at a density of 4×10^5 cells/cm^2 on poly-1-ornithine coated plastic tissue culture plates in a mixture of DMEM and F12 media (50/50 v/v GIBCO) supplemented with 5% horse serum and 0.5% fetal bovine serum. Cells were incubated at 37° C. in a humidified atmosphere of 5% CO2 /95% air for 5 days. ChAT activity was measured as described in Example III(A)(1).
Recombinant rat NT-3 was produced by using a recombinant baculovirus expression vector under the control of the polyhedron virus promoter (Fraser, In Vitro Cell. and Dev. Biol. 25:225-235 (1989)). The plasmid pXM-NT3 (Hallbook et al., Neuron 6:845-858 (1991), which contained the rat NT-3 cDNA clone, was provided by Dr. Ira Black (University of Medicine and Dentistry of New Jersey, Piscataway, N.J.). NT-3 cDNA was subcloned into the transfer vector pVL1392 (In Vitrogen Corp., San Diego, Calif.) for recombinant virus production. Recombinant baculovirus was produced as described in Meyer et al. (Meyer at al., J. Neurochem 62:825-833 (1994)).

[4] abbreviates: Gallus gallus, DRG neuron, read-out: Neuronal Survival (% of Control).
The mark [5] stands for this setting: 16 μM ATP, 37° C., 15 min, read-out: INHIBITION OF trkA KINASE IC50.

Sequence of trkA tyrosine kinase (P04629 33-796): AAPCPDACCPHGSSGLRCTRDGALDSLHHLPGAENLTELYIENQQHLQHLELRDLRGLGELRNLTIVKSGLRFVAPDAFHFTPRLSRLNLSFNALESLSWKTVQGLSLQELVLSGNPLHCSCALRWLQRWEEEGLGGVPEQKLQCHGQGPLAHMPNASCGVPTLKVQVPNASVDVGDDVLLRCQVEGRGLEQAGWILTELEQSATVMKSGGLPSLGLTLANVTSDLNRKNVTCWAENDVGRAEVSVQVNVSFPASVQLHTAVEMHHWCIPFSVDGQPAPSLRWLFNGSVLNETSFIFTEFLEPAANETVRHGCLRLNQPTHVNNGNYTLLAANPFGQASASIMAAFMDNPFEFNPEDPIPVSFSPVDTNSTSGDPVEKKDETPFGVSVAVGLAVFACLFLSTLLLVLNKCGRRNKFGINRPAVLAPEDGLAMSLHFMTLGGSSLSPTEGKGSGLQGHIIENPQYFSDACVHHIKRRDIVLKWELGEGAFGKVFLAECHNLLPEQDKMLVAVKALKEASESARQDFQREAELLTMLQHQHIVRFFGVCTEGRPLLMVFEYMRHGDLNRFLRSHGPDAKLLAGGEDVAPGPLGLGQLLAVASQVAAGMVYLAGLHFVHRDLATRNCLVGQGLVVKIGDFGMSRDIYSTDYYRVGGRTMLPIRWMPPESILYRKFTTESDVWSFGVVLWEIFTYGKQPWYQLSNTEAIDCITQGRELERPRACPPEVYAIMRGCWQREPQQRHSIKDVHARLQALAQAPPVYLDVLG

As to `O=C1NC(=O)c2c1c1c3ccccc3[nH]c1c1sc3ccccc3c21` [Compound I-20, 6H, 12-Benzo[b]thieno[2,3-a]pyrrolo[3,4-c]carbazole-5,7(5H,7H)dione], in assay [1], the “Spinal Cord ChAT Activity, % of Control, untreated cultures” value (“Spinal Cord ChAT Activity, % of Control” below) is on record as 130 % of Control. Moreover, the IC50 against protein kinase C was 0.15 µM; in the assay on AT-2 cells (3 days, MTS), more than 10 µM.

Turning to `O=C1NCc2c3c(c4[nH]c5ccccc5c4c21)Cc1ccccc1-3` [Compound I-3], in assay [1], the “Spinal Cord ChAT Activity, % of Control” value is recorded as 174 % of Control. The IC50 against protein kinase C was 0.1 µM; with AT-2 cells (3 days, MTS), 0.38 µM. Besides, the “ChAT Activity (% of Control)” value in assay [2] (100 nM) and in assay [2] (250 nM) was “inactive” in each case. Also, in assay [2] (Rattus norvegicus, 120 h, 500 nM, read-out: ChAT Activity (% of Control)), the activity at 0.5 µM stood at 130%.

On to `O=C1NC(=O)c2c1c1c3ccccc3ccc1c1[nH]c3ccccc3c21` [Compound I-15, 6H, 14H-naphthyl[3,4-a]pyrrolo[3,4-c]carbazole-5,7(5H, 7H)-dione], for which the “Spinal Cord ChAT Activity, % of Control” value in assay [1] is 182 % of Control. In addition, the IC50 against protein kinase C is 0.05 µM; against trkA tyrosine kinase, more than 1 µM; in the assay with AT-2 cells it was 4.3 µM. Further, the “Neuronal Survival (% of Control)” value with chick DRG neurons (100 nM) and with chick DRG neurons (500 nM) was “inactive” each time. Besides, the viability at 0.25 µM in the assay on chick DRG neurons (setting [4]) is 132%.

For `O=C1NC(=O)c2c1c1c(c3[nH]c4ccc(F)cc4c23)Cc2ccccc2-1` [Compound I-7], the “Spinal Cord ChAT Activity, % of Control” value in assay [1] is on record as 164 % of Control. Moreover, the IC50 was 0.15 µM against protein kinase C; more than 1 µM at trkA tyrosine kinase (setting [5]); 1.37 µM with AT-2 cells (3 days, MTS). Further, in assay [3] (compound added alone to basal forebrain neurons, no NT-3), the “ChAT activity in the absence of NT-3” value is recorded as “no effect on ChAT activity”. The “ChAT activity in the presence of NT-3” value in assay [3] (with 100 ng/ml NT-3) is recorded as “enhanced ChAT activity”.

Consider `O=C1NCc2c1c1c(c3[nH]c4ccc(C=Cc5ccccc5)cc4c23)Cc2ccccc2-1` [Compound I-24, 3-(2-Phenylethenyl)5H,6H,12H,13H-indeno[2,3-a]pyrrolo[3,4-c]carbazole-7(7H)-one], for which, in assay [1], the “Spinal Cord ChAT Activity, % of Control” value is on record as 236 % of Control. Also, the IC50 was 8 µM at protein kinase C; more than 1 µM on trkA tyrosine kinase (setting [5]); more than 10 µM with AT-2 cells (3 days, MTS). Further, in assay [2] (100 nM), the “ChAT Activity (% of Control)” value is “inactive”. In addition, the activity at 0.25 µM in assay [2] (Rattus norvegicus, 120 h, 250 nM, read-out: ChAT Activity (% of Control)) worked out at 151%. Moreover, the viability at 0.1 µM in the assay with chick DRG neurons (Gallus gallus, DRG neuron, 100 nM, read-out: Neuronal Survival (% of Control)) is 154%. Besides, the viability at 0.25 µM in the assay on chick DRG neurons (setting [4]) is 167%. For the same molecule, the viability at 0.5 µM in the assay with chick DRG neurons (Gallus gallus, DRG neuron, 500 nM, read-out: Neuronal Survival (% of Control)) was 163%.

For the molecule `O=C1NC(=O)c2c1c1c3ccccc3[nH]c1c1oc3ccccc3c21` [Compound I-21, 6H, 13H -Benzofuranyl[2,3-a]pyrrolo[3,4-c]carbazole-5,7(5H, 7H)dione], in assay [1], the “Spinal Cord ChAT Activity, % of Control” value is 122 % of Control. The IC50 in the assay with AT-2 cells (3 days, MTS) was more than 10 µM.

On to `O=C1NC(=O)c2c1c1c(c3[nH]c4ccccc4c23)CCc2ccccc2-1` [Compound I-14, 12,13-Dihydro-6H, 14H-naphthyl[3,4-a]pyrrolo[3,4-c]carbazole-5,7(5H, 7H)dione], for which, in assay [1], the “Spinal Cord ChAT Activity, % of Control” value is given as 153 % of Control. For the same molecule, the figures for the IC50 against protein kinase C and with AT-2 cells were 0.015 µM and 3.07 µM, respectively.
